US11377442B2, “Small molecule agonists and antagonists of NR2F6 activity” (ZANDER THERAPEUTICS, INC., priority 2016, dated 2022)
Where two headings read alike, the source gives them in different places.

Key:
Assay type in all cases: cell-based
NR2F6 = biological target: T1, NR2F6 (Homo sapiens, UniProt P10588); assay: NR2F6 agonist screening, Firefly signal cmpd/DMSO; conditions: for activity (in words): screening result
T1 construct: expressed in transfected cells; also transient transfection
T1 sequence (P10588 1-404): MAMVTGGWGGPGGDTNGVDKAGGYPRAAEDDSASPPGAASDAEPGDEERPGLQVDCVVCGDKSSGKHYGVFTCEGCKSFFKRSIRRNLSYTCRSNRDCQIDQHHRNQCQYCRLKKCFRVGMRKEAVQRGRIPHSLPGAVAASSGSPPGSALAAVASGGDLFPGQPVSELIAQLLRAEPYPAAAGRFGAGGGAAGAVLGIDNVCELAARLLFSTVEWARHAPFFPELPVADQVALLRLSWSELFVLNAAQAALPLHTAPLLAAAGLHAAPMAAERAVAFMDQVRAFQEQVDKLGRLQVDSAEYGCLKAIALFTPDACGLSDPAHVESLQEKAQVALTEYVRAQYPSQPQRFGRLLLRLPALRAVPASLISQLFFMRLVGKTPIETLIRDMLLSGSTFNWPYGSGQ

ERα [1] = biological target: T2, ERα (Homo sapiens, UniProt P03372); assay: Counterscreening, Firefly signal with ERα transient transfection (Firefly_ERa); conditions: 10 uM
T2 construct: expressed in transfected cells
T2 sequence (P03372 1-595): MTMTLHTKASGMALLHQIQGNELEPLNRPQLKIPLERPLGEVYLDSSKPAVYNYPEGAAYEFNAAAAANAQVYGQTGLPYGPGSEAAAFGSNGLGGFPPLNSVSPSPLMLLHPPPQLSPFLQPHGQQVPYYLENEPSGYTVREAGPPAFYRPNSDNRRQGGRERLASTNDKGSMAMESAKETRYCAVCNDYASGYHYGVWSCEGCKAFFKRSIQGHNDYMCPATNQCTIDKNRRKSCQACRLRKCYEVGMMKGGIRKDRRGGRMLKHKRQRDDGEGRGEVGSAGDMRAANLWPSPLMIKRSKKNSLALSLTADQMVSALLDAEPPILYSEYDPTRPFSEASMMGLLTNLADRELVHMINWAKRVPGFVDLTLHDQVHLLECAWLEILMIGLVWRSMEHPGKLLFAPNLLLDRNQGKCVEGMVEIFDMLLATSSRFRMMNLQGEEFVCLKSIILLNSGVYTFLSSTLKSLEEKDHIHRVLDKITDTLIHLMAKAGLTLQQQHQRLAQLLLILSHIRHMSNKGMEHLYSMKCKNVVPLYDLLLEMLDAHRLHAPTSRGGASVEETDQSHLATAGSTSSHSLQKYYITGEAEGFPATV
Procedure: The methodology for screening candidate compounds as NR2F6 agonists was as follows: For primary screening, hit criteria was ACT %>DMSO control+5*SD (DSO control) at 10 μM, or any compound with S/B>2. For rescreening, hit criteria was ACT %>DMSO control+3*SD (DSO control) in each replicate at 10 μM. For counterscreening, hit criteria was mean ACT<DMSO control+3*SD (DMSO control) with ERα transient transfection in duplicate at 10 μM.

Renilla = Renilla signal in NR2F6 agonist screening, cmpd/DMSO; conditions: Renilla, read-out: Renilla F4, cmpd/DMSO (mean)
Renilla_ERa = assay: Renilla signal in ERα counterscreen (Renilla_ERa); conditions: read-out: Renilla ERalpha transient, cmpd/DMSO (mean)
ERα [2] = biological target: T2, ERα; assay: Counterscreening, Firefly signal with ERα transient transfection (Firefly_ERa)

Compound | Firefly F4, cmpd/DMSO (mean) (NR2F6; 2 uM, clone F4) | Firefly F4, cmpd/DMSO (mean) (NR2F6; 10 uM, clone F4) | Firefly F4, cmpd/DMSO (mean) (NR2F6; 40 uM, clone F4) | Firefly ERalpha transient, cmpd/DMSO (mean) (ERα [1]) | fold induction at 2 µM (Renilla; clone F4) | fold induction at 10 µM (Renilla; clone F4) | fold induction at 40 µM (Renilla; clone F4) | fold induction at 2 µM (Renilla_ERa) | fold induction at 10 µM (Renilla_ERa) | fold induction at 40 µM (Renilla_ERa) | Firefly ERalpha transient, cmpd/DMSO (mean) (ERα [2]; 2 uM) | Firefly ERalpha transient, cmpd/DMSO (mean) (ERα [2]; 40 uM) | further results
CC(=O)Nc1ccc(NS(C)(=O)=O)c2nonc12 [Compound Z15] |  |  |  |  |  |  |  |  |  |  |  |  | Firefly F4, cmpd/DMSO (mean) (NR2F6; Table 15, 2 uM): 1.0; Firefly F4, cmpd/DMSO (mean) (NR2F6; Table 15, 10 uM): 0.5; Firefly F4, cmpd/DMSO (mean) (NR2F6; Table 15, 40 uM): 0.9; Firefly ERalpha transient, cmpd/DMSO (mean) (ERα [1]; Table 15): 1.1; fold induction at 2 µM (Renilla; Table 15): 0.8; fold induction at 10 µM (Renilla; Table 15): 1.1; fold induction at 40 µM (Renilla; Table 15): 1; fold induction at 2 µM (Renilla_ERa; Table 15): 1; fold induction at 10 µM (Renilla_ERa; Table 15): 1; fold induction at 40 µM (Renilla_ERa; Table 15): 0.9; Firefly ERalpha transient, cmpd/DMSO (mean) (ERα [2]; Table 15, 2 uM): 0.9; Firefly ERalpha transient, cmpd/DMSO (mean) (ERα [2]; Table 15, 40 uM): 1.1
CCOC(=O)c1cnc2c(C)cc(C)cc2c1N1CCCC(N(C)C)C1 (centres unmarked) [Compound Z27] | 1.3 | 1.3 | 0.7 | 2.1 | 1.2 | 1.2 | 0.9 | 1.2 | 1.2 | 0.8 | 1.3 | 0.5 | 
Cc1cc(C)c2ncc(C(=O)O)c(NCCCN(C)C)c2c1 [Compound Z28] | 1.0 | 0.9 | 1.3 | 1.1 | 1 | 1.2 | 1.2 | 1.1 | 1.3 | 1 | 1.8 | 1.3 | 
Cc1cc(C)c2ncc(C(=O)OC(C)C)c(NCCCN(C)C)c2c1 [Compound Z29] | 1.3 | 1.1 | 1.1 | 1.2 | 0.8 | 0.9 | 0.5 | 0.8 | 1.2 | 0.7 | 1.0 | 6.7 | 
CNC(=O)c1cnc2c(C)cc(C)cc2c1NCCCN(C)C [Compound Z30] | 1.4 | 1.1 | 1.2 | 1.1 | 1.1 | 1.1 | 0.7 | 1.1 | 1.1 | 1.6 | 1.4 | 1.4 | 
Cc1cc(C)c2ncc(C(=O)N(C)C)c(NCCCN(C)C)c2c1 [Compound Z31] | 0.8 | 0.9 | 1.1 | 1.6 | 1.1 | 1 | 1 | 1 | 1 | 1 | 0.9 | 1.3 | 
Cc1cc(C)c2ncc(C(=O)N3CCCC3)c(NCCCN(C)C)c2c1 [Compound Z32] | 1.8 | 0.9 | 1.5 | 0.8 | 1 | 1 | 1.3 | 1 | 1.1 | 0.8 | 1.8 | 1.5 | 
CCOC(=O)c1cnc2ccc(C)cc2c1NCCCN(C)C [Compound Z33] | 1.7 | 2.0 | 6.6 | 1.8 | 1.1 | 1 | 0.6 | 1 | 1.5 | 0.9 | 2.1 | 8.8 | activity (in words) (NR2F6): particularly good activity
CCOC(=O)c1cnc2cc(C)c(C)cc2c1NCCCN(C)C [Compound Z34] | 1.6 | 3.8 | 0.7 | 10.3 | 1.2 | 0.8 | 0.6 | 1.5 | 1 | 0.7 | 2.0 | 0.9 | activity (in words) (NR2F6): particularly good activity
CCOC(=O)c1cnc2c(Cl)cc(Cl)cc2c1NCCCN(C)C [Compound Z35] | 1.9 | 1.5 | 1.2 | 2.2 | 1.1 | 2 | 0.7 | 1.1 | 1.3 | 0.9 | 2.6 | 7.2 | 
CCOC(=O)c1cnc2c(Cl)cc(Cl)cc2c1NCCCN1CCCC1 [Compound Z36] | 0.7 | 1.8 | 0.7 | 1.6 | 1 | 1.8 | 0.6 | 1.2 | 1.6 | 0.8 | 1.2 | 5.8 | 
CCOC(=O)c1cnc2c(Cl)cc(Cl)cc2c1NCCCN1CCCCC1 [Compound Z37] | 1.0 | 1.4 | 0.7 | 1.5 | 1 | 0.9 | 0.5 | 1 | 1.7 | 0.7 | 1.1 | 1.2 | 
COc1ccc2nc(C(F)(F)F)c(C#N)c(NCc3ccc(Cl)cc3)c2c1 [Compound Z38] | 0.5 | 0.8 | 0.6 | 0.5 | 0.7 | 0.6 | 0.4 | 0.9 | 0.6 | 0.6 | 0.9 | 0.5 | 
